Legend:
XMuLV [1] = experiment: Viral inactivation by 1% detergent in XMuLV-spiked BisAb cell harvest media, plaque assay (Example 1); format: cell-based, murine xenotropic leukemia virus-related virus; parameters: Virus concentration: unit not given here; settings: for Log10 reduction value / Virus concentration: BisAb harvest media; for Virus concentration: room temperature; for viral inactivation kinetics: in words, compared to Laureth-9
From the text: The viral inactivation of four detergents was examined using a CHO-derived cell harvest material for a monovalent bispecific human IgG1 monoclonal antibody. Brij L9 (Laureth-9), Myrj S25, and Brij S20 were sourced from Croda International Plc. (East Yorkshire, United Kingdom). Polidocanol 600 (Laureth-9) was sourced from Schärer & Schläpfer AG (Rothrist, Switzerland).
(§1) Harvest media was spiked with murine xenotropic leukemia virus-related virus (XMuLV) stock prior to the detergent spike.
(§2) Conditioned cell harvest media containing a monovalent bispecific human IgG1 monoclonal antibody (BisAb) was spiked with 8.5 logs of XMuLV. A sample of the virus spiked harvest media was collected and used as a hold control to determine the rate of viral inactivation without detergent.
(§3) A 10% (w/w) stock solution was made by dissolving detergent into 50 mM Tris pH 7.4. A cell harvest sample of BisAb media spiked with XMuLV was spiked to a 1% detergent concentration using an appropriate amount of the 10% stock solution. The hold control and reaction samples were incubated at room temperature. Samples were collected at 1, 10, 60, and 120 minutes and diluted 1:50 in McCoy medium to stop the viral inactivation reaction. Diluted samples and hold control were assayed for viral concentration using a plaque assay.

XMuLV [2] = experiment: Viral inactivation by Laureth-9 in XMuLV-spiked BisAb or BisFusion conditioned media (Example 2); format: cell-based, murine xenotropic leukemia virus-related virus
Protocol: as §1, §2, §3
A study was performed essentially as described in Example 1 to examine the viral inactivation using detergent concentrations of 1% Brij L9 (Laureth-9, sourced from Croda International Plc., East Yorkshire, United Kingdom) and 1% Polidodecanol 600 (Laureth-9, sourced from Schärer & Schläpfer AG, Rothrist, Switzerland) for CHO-derived conditioned media for BisAb and 1% or 0.1% Brij L9 for CHO-derived conditioned media for a bispecific fusion protein (BisFusion).

AAV6.2 cell paste = experiment: Detergent lysis of AAV6.2 cell paste slurry, lysate AAV titer by qPCR; format: cell-based; settings: for Lysate AAV6 Titer: 0.5% detergent, AAV6 cell paste lot A8498, 1 hour at RT
Protocol: (§4) An AAV6.2 cell paste slurry was generated and stored at −80° C. Brij L9 (Laureth-9) was sourced from Croda International Plc. (East Yorkshire, United Kingdom). Triton X-100 was sourced from Spectrum Chemical (New Brunswick, NJ). Capto AVB resin was sourced from GE Healthcare (Piscataway, NJ). COSP filters were obtained from EMD Millipore (Burlington, MA). Sartopore 2 XLG, 0.8/0.2 um filters were obtained from Sartorius Stedim Biotech GmbH (Gottingen, Germany). All the buffer salts were sourced from Avantor Performance Chemicals (Center Valley, Pennsylvania).
(§5) For detergent lysis, the AAV6.2 cell paste was diluted to a 10% slurry with 20 mM Tris, 200 mM NaCl, 2 mM MgCl2, pH 7.5. 10% (w/w) detergent stock solution was spiked into cell slurry to bring final detergent concentration to 0.5% (v/w). Benzonase was spiked to 10 U/ml into cell slurry mixture and mixed slowly at RT for 1 hour.
(§6) AAV Purification was performed using a Capto AVB affinity column. Purification was controlled by Unicorn 7.0 software on an AKTA AVANT purchased from GE Healthcare (Piscataway, NJ). COSP POD filter was flushed with 20 mM Tris, 500 mM NaCl, 2 mM MgCl2, pH 7.5. 10% AAV6.2 cell lysate was clarified with COSP followed by Sartopore 2 XLG, 0.8/0.2 um filter. Capto AVB column was equilibrated with 20 mM Tris, 200 mM NaCl, 2 mM MgCl2, pH 7.5 for 3 column volumes (CV). Clarified cell lysate was loaded with residence time of 6 min. Column was re-equilibrated with 20 mM Tris, 200 mM NaCl, 2 mM MgCl2, pH 7.5 for 4 CV. Product was eluted from column with 50 mM citric acid, 500 mM NaCl, 2 mM MgCl2, pH 2.5. Eluate pH was adjusted to pH 8.0 with 1 M Tris/HCl, pH 8.0 AAV Titer was determined by centrifuging 10% lysate at 13,000 rpm for 10 min and collecting the supernatant. AAV titer was determined with in-house qPCR method.

AAV6.2 = experiment: AAV purification on Capto AVB after cell lysis, eluate titer and infectivity; settings: for CaptoAVB Elu Infectivity / CaptoAVB Elu Titer: detergent cell lysis, cell paste lot A8489 (Brij-L9), A8102 (Triton X100)
Protocol: as §4, §5
For freeze-and-thaw lysis, the cell paste slurry was put through 2 freeze-thaw cycles at −80° C. and RT. AAV lysate was diluted to 10% slurry with 20 mM Tris, 200 mM NaCl, 2 mM MgCl2, pH 7.5. Benzonase was spiked to 10 U/ml into cell slurry mixture and mixed slowly at RT for 1 hour.
as §6

aquatic organisms = settings: cited from earlier work
enveloped virus = settings: cited from earlier work
[3] = 0 min, 0.1% detergent, BisFusion
[4] = 10 min, 0.1% detergent, BisFusion
[5] = 10 min, 1% detergent, BisFusion
[6] = 60 min, 0.1% detergent, BisFusion
[7] = 60 min, 1% detergent, BisFusion
[8] = <1 min, 0.1% detergent, BisFusion
[9] = <1 min, 1% detergent, BisFusion

Compound | Log10 reduction value (XMuLV [1]; 0 min) | Virus concentration (XMuLV [1]; 0 min) | Log10 reduction value (XMuLV [1]; 10 min) | Virus concentration (XMuLV [1]; 10 min) | Log10 reduction value (XMuLV [1]; 60 min) | Virus concentration (XMuLV [1]; 60 min) | Log10 reduction value (XMuLV [1]; 120 min) | Virus concentration (XMuLV [1]; 120 min) | viral inactivation kinetics (XMuLV [1]) | Log10 reduction value (XMuLV [2]; 0 min, 1% detergent, BisAb) | Virus concentration (XMuLV [2]; 0 min, 1% detergent, BisAb) | Log10 reduction value (XMuLV [2]; 10 min, 1% detergent, BisAb) | Virus concentration (XMuLV [2]; 10 min, 1% detergent, BisAb) | Log10 reduction value (XMuLV [2]; 60 min, 1% detergent, BisAb) | Virus concentration (XMuLV [2]; 60 min, 1% detergent, BisAb) | Log10 reduction value (XMuLV [2]; <1 min, 1% detergent, BisAb) | Virus concentration (XMuLV [2]; <1 min, 1% detergent, BisAb) | Lysate AAV6 Titer (AAV6.2 cell paste) | CaptoAVB Elu Infectivity (AAV6.2) | CaptoAVB Elu Titer (AAV6.2) | other results
CCCCCCCCCCCCOCCOCCOCCOCCOCCOCCOCCOCCOCCO [Brij L9, 3,6,9,12,15,18,21,24,27-nonaoxanonatriacontan-1-ol] | 0 Log10 | 7.79 | >4.61 Log10 | <3.18 | >4.61 Log10 | <3.18 | >4.61 Log10 | <3.18 | improved, desirable viral inactivation kinetics | 0 Log10 | 7.00 | >4.07 Log10 | <2.88 | >4.07 Log10 | <2.88 | >4.03 Log10 | <2.88 | 11.04 Log10 vg/mL | 10.5 Log10 TCID50/mL | 12.2 Log10 vg/mL | Log10 reduction value (XMuLV [2]; [3]): 0 Log10; Virus concentration (XMuLV [2]; [3]): 7.21; Log10 reduction value (XMuLV [2]; 0 min, 1% detergent, BisFusion): 0 Log10; Virus concentration (XMuLV [2]; 0 min, 1% detergent, BisFusion): 7.21; Log10 reduction value (XMuLV [2]; [4]): >3.88 Log10; Virus concentration (XMuLV [2]; [4]): <2.88; Log10 reduction value (XMuLV [2]; [5]): >3.84 Log10; Virus concentration (XMuLV [2]; [5]): <2.88; Log10 reduction value (XMuLV [2]; [6]): >3.88 Log10; Virus concentration (XMuLV [2]; [6]): <2.88; Log10 reduction value (XMuLV [2]; [7]): >3.84 Log10; Virus concentration (XMuLV [2]; [7]): <2.88; Log10 reduction value (XMuLV [2]; [8]): >3.88 Log10; Virus concentration (XMuLV [2]; [8]): <2.88; Log10 reduction value (XMuLV [2]; [9]): >3.84 Log10; Virus concentration (XMuLV [2]; [9]): <2.88; cell lysis for AAV purification (AAV6.2 cell paste; in words, compared with Triton X-100): as effective for cell lysis for AAV purification as Triton X-100; impact on AAV infectivity (AAV6.2; in words): does not show any negative impact
CCCCCCCCCCCCOCCOCCOCCOCCOCCOCCOCCOCCOCCO [Polidodecanol 600, 3,6,9,12,15,18,21,24,27-nonaoxanonatriacontan-1-ol] | 0 Log10 | 7.79 | >4.61 Log10 | <3.18 | >4.61 Log10 | <3.18 | >4.61 Log10 | <3.18 | – | 0 Log10 | 7.00 | >4.07 Log10 | <2.88 | >4.07 Log10 | <2.88 | >4.03 Log10 | <2.88 | – | – | – | Log10 reduction value (XMuLV [1]; <1 min): >4.61 Log10
CC(C)(C)CC(C)(C)c1ccc(O)cc1 [octlyphenol] | – | – | – | – | – | – | – | – | – | – | – | – | – | – | – | – | – | – | – | – | endocrine disruption (aquatic organisms): can behave as endocrine disrupters in aquatic organisms
Triton X-100 [reference compound] | – | – | – | – | – | – | – | – | – | – | – | – | – | – | – | – | – | 11.03 Log10 vg/mL | 9.8 Log10 TCID50/mL | 11.8 Log10 vg/mL | enveloped virus inactivation (enveloped virus; diverse set of experimental conditions): greater than 4 logs; endocrine disruption (aquatic organisms): can behave as endocrine disrupters in aquatic organisms
polyoxyethylene (20) stearyl ether [Brij S20, reference compound] | 0 Log10 | 7.79 | 2.90 Log10 | 4.89 | >4.61 Log10 | <3.18 | >4.61 Log10 | <3.18 | significantly slower | – | – | – | – | – | – | – | – | – | – | – | Log10 reduction value (XMuLV [1]; <1 min): 0.89 Log10; Virus concentration (XMuLV [1]; <1 min): 6.9
polyoxyethylene (23) lauryl ether [Brij 35] | – | – | – | – | – | – | – | – | – | – | – | – | – | – | – | – | – | – | – | – | effectiveness for viral inactivation (enveloped virus; finding of Conley et al. (2017)): not effective for viral inactivation

Reference: patent US20240327454A1, “DETERGENT AND METHOD FOR PURIFYING A BIOTHERAPEUTIC” (MEDIMMUNE, LLC, priority 2020, published 2024)
